Experimental data taken from patent publication US10155728B2, “Compounds for treatment of cancer” (GTX INC., priority 2014, dated 2018).
Several values for one entry are separate records, joined by “and”; a condition that tells them apart may be missing. Identical values can stand only once. Like-named read-outs stand apart in the source and are kept apart here.

How the values were obtained:
Bovine brain tubulin = biological target: T1, Bovine brain tubulin (Bos taurus, UniProt P81947+Q6B856); experiment: In vitro tubulin polymerization assay; assay type: biochemical; conditions: for inhibition at 5 µM / inhibition at 10 µM: after 20 min incubation, compared to vehicle; for Inhibition of tubulin polymerization relative to colchicine (in words): 5 and 10 μM
T1 construct: Bovine brain tubulin (0.4 mg, >97% pure) (Cytoskeleton, Denver, Colo.); purchased Cytoskeleton, Denver, Colo; host or cells: bovine brain tissue
Description: In Vitro Tubulin Polymerization Assay. […] […] The spectrophotometer was set at 37° C. for tubulin polymerization. […] DMSO was used as a blank control.

[1] = Microsomal stability assay, human; assay type: in vitro ADME; conditions: for T1/2: human liver microsomes, 0.5 μM
Description: (§1) Microsomal Stability Assay. […] For metabolite identification, the reaction mixture was incubated for 2 h with 50 μM test compound concentration under the previously described conditions. The supernatants were analyzed using a Water Xevo G2-S high resolution mass spectrometer.

[2] = Microsomal stability assay, mouse; assay type: in vitro ADME; conditions: for T1/2: mouse liver microsomes, 0.5 μM
Description: as §1

[3] = system: melanoma and prostate cancer cell lines; experiment: SRB cytotoxicity assay, melanoma and prostate cancer cell lines; assay type: cell-based; conditions: SRB 96 h
[4] = Microsomal stability assay, rat; assay type: in vitro ADME; conditions: for T1/2: rat liver microsomes, 0.5 μM
Description: as §1

[5] = Metabolite identification in liver microsomes; assay type: in vitro ADME; conditions: 50 μM, 2 h incubation, high resolution MS
Description: as §1
We utilized a high resolution mass spectrometer for the identification of the metabolites with a mass error of less than 2 ppm generally. The detailed information regarding the mass spectrum and the chromatogram of each of the metabolites are presented in the supplementary materials. […] M4 (identified by mass spectrum 388.12 [M+1]) was the product that resulted from ketone reduction and it was further hydroxylated to M5 (identified by mass spectrum 404.12 [M+1]) at a position that was unidentifiable due to limited information. […] M7 (deamination) (identified by mass spectrum 370.11 [M+1]) was a minor product. […] M9 (identified by mass spectrum 386.15 [M+1]) and M10 (identified by mass spectrum 416.16 [M+1]) had more than one possible structure as indicated in the chromatograms. For 7 (FIG. 11), various metabolites including 0-demethylation (M12) (identified by mass spectrum 387.15 [M+1]), mono-hydroxylation (M14) (identified by mass spectrum 417.16 [M+1]), O-demethylation followed by mono-hydroxylation (M11) (identified by mass spectrum 403.14 [M+1]), and dihydroxylation (M13) (identified by mass spectrum 433.15 [M+1]) were detected.

LNCaP cells = experiment: SRB cytotoxicity assay, LNCaP prostate cancer cells; assay type: cell-based, human; conditions: androgen sensitive prostate cancer LNCaP cells
A375 cells = experiment: SRB cytotoxicity assay, A375 melanoma cells; assay type: cell-based; conditions: for IC50: SRB assay after 96 h of treatment, read-out: IC50 against A375 cells
[6] = Microsomal stability, liver microsomes over tested species; assay type: in vitro ADME
Description: as §1

[7] = system: K562 human leukemia cells; conditions: read-out: IC50 against K562 human leukemia cells; cited from earlier work

T1 sequence (Q6B856 whole entry): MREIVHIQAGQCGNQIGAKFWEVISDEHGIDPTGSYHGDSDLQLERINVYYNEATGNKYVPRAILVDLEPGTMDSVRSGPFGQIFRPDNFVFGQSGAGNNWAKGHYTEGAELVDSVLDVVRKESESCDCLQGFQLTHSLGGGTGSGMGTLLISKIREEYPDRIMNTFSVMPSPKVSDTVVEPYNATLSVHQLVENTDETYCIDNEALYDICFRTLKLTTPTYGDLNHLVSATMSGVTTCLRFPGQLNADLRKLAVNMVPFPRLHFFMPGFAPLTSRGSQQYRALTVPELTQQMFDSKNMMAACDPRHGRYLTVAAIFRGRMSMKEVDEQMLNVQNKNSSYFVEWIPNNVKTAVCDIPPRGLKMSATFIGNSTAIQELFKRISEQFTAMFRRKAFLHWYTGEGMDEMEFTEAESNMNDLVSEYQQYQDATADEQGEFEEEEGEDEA
T1 sequence (P81947 whole entry): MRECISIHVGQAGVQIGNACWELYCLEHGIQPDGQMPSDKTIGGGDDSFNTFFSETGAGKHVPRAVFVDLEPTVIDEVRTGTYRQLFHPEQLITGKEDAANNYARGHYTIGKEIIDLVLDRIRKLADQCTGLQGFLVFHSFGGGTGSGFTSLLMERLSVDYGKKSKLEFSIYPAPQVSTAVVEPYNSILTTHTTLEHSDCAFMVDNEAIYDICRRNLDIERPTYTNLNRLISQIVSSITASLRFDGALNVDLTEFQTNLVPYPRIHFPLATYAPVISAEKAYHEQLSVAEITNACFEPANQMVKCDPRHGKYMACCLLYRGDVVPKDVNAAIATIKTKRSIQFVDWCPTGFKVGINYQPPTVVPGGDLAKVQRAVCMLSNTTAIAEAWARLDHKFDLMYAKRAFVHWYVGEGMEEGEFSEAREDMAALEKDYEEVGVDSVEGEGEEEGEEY

Row | SMILES | T1/2 [1] | T1/2 [2] | T1/2 [4] [min] | Antiproliferative activity (in words) [3] | Major metabolites / metabolic pathway [5] | further results
1 | COc1cc(C(=O)c2csc(-c3ccccc3)n2)cc(OC)c1OC(=O)CCl [Compound 12, 2,6-Dimethoxy-4-(2-phenylthiazole-4-carbonyl)phenyl 2-chloroacetate] | – | – | – | dropped significantly | – | –
2 | COc1cc(C(=O)c2csc(-c3ccccc3)n2)cc(OC)c1OCCN1C(=O)c2ccccc2C1=O [Compound 17, 2-(2-(2,6-Dimethoxy-4-(2-phenylthiazole-4-carbonyl)phenoxy)ethyl)isoindoline-1,3-dione] | – | – | – | micromolar range potency | – | –
3 | COc1cc(C(=O)c2c[nH]c(Nc3ccccc3)n2)cc(OC)c1OC [Compound 27, (2-(Phenylamino)-1H-imidazol-4-yl)(3,4,5-trimethoxyphenyl)methanone] | – | – | – | did not demonstrate any activity | – | –
4 | COc1cc(C(=O)c2csc(Nc3ccc4[nH]ccc4c3)n2)cc(OC)c1OC [Compound 33, (2-((1H-Indol-5-yl)amino)thiazol-4-yl)(3,4,5-trimethoxyphenyl)methanone] | – | – | – | excellent growth inhibition | – | IC50 change compared to PAT (prostate cancer cells): 2-3 fold
5 | COc1ccc(/C=C(\C)C(=O)c2cc(OC)c(OC)c(OC)c2)cc1O [SD400] | – | – | – | – | – | IC50 [7]: 0.21 nM

Continued, in another order:

Row | T1/2 [1] | T1/2 [2] | T1/2 [4] [min] | SMILES | Antiproliferative activity (in words) [3] | Major metabolites / metabolic pathway [5] | further results
6 | 50.7 ± 1.2 min | – | – | COc1cc(-c2cccc3[nH]c(-c4c[nH]c5ccccc45)nc23)cc(OC)c1OC [Compound 4, 2-(1H-Indol-3-yl)-4-(3,4,5-trimethoxyphenyl)-1H-benzo[d]imidazole] | comparable potency | O-demethylation (M9) and mono-hydroxylation (M10) | inhibition at 5 µM (Bovine brain tubulin): 30%; inhibition at 10 µM (Bovine brain tubulin): 60%; Inhibition of tubulin polymerization relative to colchicine (in words) (Bovine brain tubulin): stronger inhibition than colchicine; half-life at 0.5 μM ([1]; human, pooled liver microsomes, pH 7.4, human liver microsomes): 51 min; half-life at 0.5 μM ([2]; pH 7.4, mouse liver microsomes): 53.5 ± 2.4 min; half-life at 0.5 μM ([4]; pH 7.4, rat liver microsomes): 72.3 ± 4.6 min
7 | 45 min and 45.3 ± 2.0 min | 19.7 ± 0.7 min | 30.4 ± 1.9 | COc1cc(-c2nccc3[nH]c(-c4ccc5[nH]ccc5c4)nc23)cc(OC)c1OC [Compound 7, 2-(1H-Indol-5-yl)-4-(3,4,5-trimethoxyphenyl)-1H-imidazo[4,5-c]pyridine] | increased potency | formed very evenly with similar relative amount | IC50 improvement compared to 10 and 4 (LNCaP cells): at least 5 fold; inhibition at 5 µM (Bovine brain tubulin): ~33%; inhibition at 10 µM (Bovine brain tubulin): ~81%; Inhibition of tubulin polymerization relative to colchicine (in words) (Bovine brain tubulin): stronger inhibition than colchicine; IC50 improvement compared to 10 and 4 (A375 cells; melanoma A375 cells): at least 5 fold
8 | 17 min | <<5 min | 31 | COc1cc(C(=O)c2csc(-c3ccccc3)n2)cc(OC)c1OC [Compound 10, reference compound] | – | – | IC50 (A375 cells): 28 nM
9 | 7.8 ± 0.3 min | 4.0 ± 0.3 min | 9.7 ± 0.4 | COCOc1c(OC)cc(C(=O)c2csc(-c3ccccc3)n2)cc1OC [Compound 15, (3,5-Dimethoxy-4-(methoxymethoxy)phenyl)(2-phenylthiazol-4-yl)methanone] | improved activity | removal of the MOM group to form M1 | Metabolic stability (in words) ([6]; any of the tested liver microsomes): did not improve its metabolic stability; half-life at 0.5 μM ([6]; pH 7.4, human, mouse, rat liver microsomes, read-out: T1/2 over tested species liver microsomes): < 10 min; IC50 (A375 cells; Homo sapiens, A-375): 20 nM
